pIC50: −log10 of the molar value.
Molecular target: Phospholipase A2 group IIA
Experiment: Concentration required for in vitro inhibitory activity against human type II phospholipase A2

SMILES	pIC50
CCOC(=O)[C@@]1(Cc2ccccc2)S[C@H](F)C(C)(C)C1=O	6.17
CCOC(=O)[C@@]1(Cc2ccccc2)S[C@@H](F)C(C)(C)C1=O	5.39
